{
  "source": "patent US6579533B1",
  "about": "“Bioabsorbable drug delivery system for local treatment and prevention of infections” (Bioasborbable Concepts, Ltd., priority 1999, dated 2003)",
  "origin": "cited, not measured here",
  "system": "most microbial strains",
  "data": [
    {"compound": "O=C(O)c1cn(C2CC2)c2cc(N3CCNCC3)c(F)cc2c1=O", "note": "[ciprofloxacin]", "values": [
      {"measurement": "minimum inhibition concentration (MIC)", "value": "< 2", "unit": "µg/mL"}
    ]}
  ]
}
